The values below come from BindingDB's records for patent US11753403 (Pic Therapeutics, 2023).

In this experiment the target is T1, Eukaryotic translation initiation factor 4E [28-217] (Homo sapiens, UniProt P06730).
T1 construct: 28-217
T1 sequence (P06730 28-217): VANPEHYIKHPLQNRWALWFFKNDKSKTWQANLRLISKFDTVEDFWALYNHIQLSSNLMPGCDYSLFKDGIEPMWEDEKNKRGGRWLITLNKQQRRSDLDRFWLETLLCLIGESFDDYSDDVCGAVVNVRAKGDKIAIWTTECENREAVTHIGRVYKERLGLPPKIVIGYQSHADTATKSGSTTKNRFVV
In words: Human eIF4E/4G2 Binding Assay. The method, then: Test compounds (3.43 mM stock in DMSO) were diluted 2-fold in series in DMSO (10 concentration points). Compound solutions (1.2 μl/well) were added into black 384-well polypropylene microplates (Matrix, Thermal Scientific). Twenty-two microliters per well of Assay Buffer (50 mM NaPi, pH 6.5, 50 mM KCl, 1 mM DTT and 0.5 mg/ml gamma globulin) and eight microliters per well of 82.5 nM purified eIF4E in Assay Buffer were added. The samples were incubated at room temperature (20-23° C.) for 4 hours. Biotin labeled 4G2 peptide (Ac-Lys-Gln-Tyr-Asp-Arg-Glu-Phe-Leu-Leu-Asp-Phe-Gln-Phe-Met-Pro-Lys(Aha-Bio)-NH2, 1.75 μM stock in DMSO) was diluted to 0.14 μM in Assay Buffer (without DTT) and 5 μl/well was added. The samples were incubated at room temperature for 20 min. Five microliters per well of 6.4 nM Eu-streptavidin (Eu-SA, Perkin Elmer) and 80 nM Allophycocyanin (APC)-anti His antibody (Columbia Biosciences) in Assay Buffer (without DTT) were then added and the samples were incubated at room temperature for 20 min.
Broadly, the IC50 is the point on the concentration scale where inhibition reaches its midpoint. Take `O=C(O)CCN(Cc1ccccc1)c1nc(-c2ccc(Cl)c(Cl)c2)c(CN2CCCCC2)s1` [US11753403, Compound I-90]: the IC50 was > 10 µM.
The same measure for `CC(C)Cc1sc(N(CCS(N)(=O)=O)Cc2ccccc2)nc1-c1ccc(Cl)c(Cl)c1` [US11753403, Compound I-98]: > 10 µM; for `CC(C)Cc1sc(N(CCC(=O)O)Cc2ccccc2)nc1-c1ccc(-c2ccc(F)cc2)c(Cl)c1` [US11753403, Compound I-104]: < 1 µM; for `NC(=O)c1sc(N(CCC(=O)O)Cc2ccccc2)nc1-c1ccc(Cl)c(Cl)c1` [US11753403, Compound I-124]: > 10 µM.
Regarding `CC(C)Cc1sc(Nc2cccc(C(=O)O)c2)nc1-c1ccc(Cl)c(Cl)c1` [US11753403, Compound I-142], the IC50 is < 1 µM.
Under `CC(C)Cc1sc(N(CCC(=O)NS(=O)(=O)CCCN)Cc2ccccc2)nc1-c1ccc(Cl)c(Cl)c1` [US11753403, Compound I-186] stands > 10 µM; under `CC(C)Cc1sc(N(CCC(=O)NCCO)Cc2ccccc2)nc1-c1ccc(Cl)c(Cl)c1` [US11753403, Compound I-194], > 10 µM.
As for `CC(C)Cc1sc(NCC(Cc2cccc(C(=O)NCCN)c2)C(=O)O)nc1-c1ccc(Cl)c(Cl)c1` (stereo not given) [US11753403, Compound I-204], the IC50 is > 10 µM.
Take `CC(C)Cc1sc(-c2ccc(NC(=O)c3ccccc3)c(C(=O)O)c2)nc1-c1ccc(Cl)c(Cl)c1` [US11753403, Compound I-237]: the half-inhibitory concentration (IC50) was < 1 µM.
Under `CC(C)Cc1sc(N2CCN(C(=O)c3cccc(F)c3)C(C(=O)O)C2)nc1-c1ccc(Cl)c(Cl)c1` (stereo not given) [US11753403, Compound I-247] stands < 1 µM.
